Measurements from patent US12071411B2, “Inhibitors of HIF-2α and methods of use thereof” (ARCUS BIOSCIENCES, INC., priority 2021, dated 2024).
Read-outs that look alike come from different tables or passages of the source.

Assays:
[1] = target: T1, HIF-2α (Homo sapiens, UniProt Q99814); experiment: HIF-2α Luciferase Reporter Assay (serum), HRE-luciferase 786-0 cells in 100% human serum; type: cell-based; settings: for IC50: 100% human serum, 786-0 reporter cells, overnight incubation, read-out: Serum Potency
Method in brief: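 786-0 cells stably expressing an HRE-luciferase reporter were plated and rested 3 h. They were then treated overnight at 37 °C with compound diluted in 100% human serum. Serum was replaced with Opti-MEM, ONE-Glo luminescence was read, and IC50 came from a 4-parameter logistic fit.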

[2] = target: T1, HIF-2α; experiment: HIF-2α Luciferase Reporter Assay (serum free) in HIF-Luc-786-0 cells; type: cell-based; settings: Opti-MEM, 786-0 reporter cells, 20 hours incubation
Method in brief: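 786-0 cells stably transduced with HIF luciferase reporter, 20,000 cells/well in serum-free Opti-MEM, compounds (50 uM downward, 1% DMSO) 20 h at 37 °C. ONE-Glo luminescence normalized to DMSO and no-cell controls; IC50 from four-parameter fit.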

[3] = ratio of IC50 in 100% serum to IC50 in serum free conditions, approximate

T1 sequence (Q99814 whole entry): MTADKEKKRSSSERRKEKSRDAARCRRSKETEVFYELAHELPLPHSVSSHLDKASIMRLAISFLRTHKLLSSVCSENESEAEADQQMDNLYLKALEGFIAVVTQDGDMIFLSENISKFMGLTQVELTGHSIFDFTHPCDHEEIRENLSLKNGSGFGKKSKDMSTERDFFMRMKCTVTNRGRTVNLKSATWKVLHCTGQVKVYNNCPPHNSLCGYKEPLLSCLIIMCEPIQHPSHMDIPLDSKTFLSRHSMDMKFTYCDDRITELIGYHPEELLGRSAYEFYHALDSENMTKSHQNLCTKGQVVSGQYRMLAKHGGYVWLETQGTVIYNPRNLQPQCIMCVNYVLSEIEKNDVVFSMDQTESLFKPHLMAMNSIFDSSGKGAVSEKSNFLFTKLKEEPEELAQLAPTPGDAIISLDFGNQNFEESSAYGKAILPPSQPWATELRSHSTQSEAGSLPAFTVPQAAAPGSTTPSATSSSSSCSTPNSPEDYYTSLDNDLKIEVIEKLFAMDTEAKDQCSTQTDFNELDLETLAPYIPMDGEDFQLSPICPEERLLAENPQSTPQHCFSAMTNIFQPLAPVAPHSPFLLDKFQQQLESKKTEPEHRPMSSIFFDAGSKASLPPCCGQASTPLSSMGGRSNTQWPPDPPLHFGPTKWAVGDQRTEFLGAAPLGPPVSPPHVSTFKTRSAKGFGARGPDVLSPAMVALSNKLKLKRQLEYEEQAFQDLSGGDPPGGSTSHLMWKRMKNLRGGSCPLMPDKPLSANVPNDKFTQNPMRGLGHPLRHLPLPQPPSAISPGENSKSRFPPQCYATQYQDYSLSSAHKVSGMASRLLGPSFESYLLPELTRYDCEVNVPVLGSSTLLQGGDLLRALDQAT

SMILES | IC50 [1] | Serum Shift (approximate) [1, 3] | IC50 [2] | Serum Shift (approximate) [1]
O[C@H]1c2c(C(F)(F)F)nn([C@@H]3CC[C@@H](F)[C@@H](F)C3)c2[C@H](F)C1(F)F [Example 153, (4S,6S)-1-[(1R,3S,4R)-3,4-difluorocyclohexyl]-5,5,6-trifluoro-3-(trifluoromethyl)-4,6-dihydrocyclopenta[c]pyrazol-4-ol] | > 1000 nM | 18 | 100 to 1000 nM | –
C[C@@H](C#N)CCn1nc(C(F)(F)F)c2c1CCC(F)(F)[C@H]2O [Example 99, (2R)-4-[(4S)-5,5-difluoro-4-hydroxy-3-(trifluoromethyl)-6,7-dihydro-4H-indazol-1-yl]-2-methylbutanenitrile] | 100 to 1000 nM | 3 | < 100 nM | –
O[C@H]1c2c(C(F)(F)F)nn([C@@H]3C[C@@H](F)[C@@H](F)[C@@H](F)C3)c2[C@H](F)C1(F)F (single isomer, unassigned) [146/147 DIAST-1] | < 100 nM | 5 | < 100 nM | –
O[C@H]1c2c(C(F)(F)F)nn([C@H]3C[C@H](F)C[C@H](F)C3)c2CC1(F)F [Example 71, (4S)-1-[(3R,5S)-3,5-difluorocyclohexyl]-5,5-difluoro-3-(trifluoromethyl)-4,6-dihydrocyclopenta[c]pyrazol-4-ol] | > 1000 nM | 18 | < 100 nM | –
O[C@H]1c2c(C(F)(F)F)nn([C@H]3C[C@]4(CC4(F)F)C3)c2CC1(F)F [Example 65, (4S)-5,5-difluoro-1-[(3s,5s)-1,1-difluorospiro[2.3]hexan-5-yl]-3-(trifluoromethyl)-4,6-dihydrocyclopenta[c]pyrazol-4-ol] | > 1000 nM | 11 | 100 to 1000 nM | –
O[C@H]1c2c(C(F)(F)F)nn(CC3CCC(F)(F)CC3)c2CC1(F)F [Example 113, (4S)-1-[(4,4-difluorocyclohexyl)methyl]-5,5-difluoro-3-(trifluoromethyl)-1H, 4H, 5H, 6H-cyclopenta[c]pyrazol-4-ol] | > 1000 nM | 14 | < 100 nM | –
O=S1(=O)CC2(CC(n3nc(C(F)(F)F)c4c3CC(F)(F)[C@H]4O)C2)C1 [Example 127, (4S)-1-(2,2-dioxo-2λ^6-thiaspiro[3.3]heptan-6-yl)-5,5-difluoro-3-(trifluoromethyl)-4,6-dihydrocyclopenta[c]pyrazol-4-ol] | > 1000 nM | 3 | > 1000 nM | –
O[C@H]1c2c(C(F)(F)F)nn(CCCOC(F)(F)F)c2CC[C@H]1F [Example 120, (4S,5R)-5-fluoro-1-[3-(trifluoromethoxy)propyl]-3-(trifluoromethyl)-4,5,6,7-tetrahydroindazol-4-ol] | 100 to 1000 nM | 4 | < 100 nM | –
O[C@H]1c2c(C(F)(F)F)nn([C@H]3CC[C@H](F)[C@H](F)C3)c2[C@@H](F)C1(F)F [Example 157, (4S,6R)-1-[(1S,3R,4S)-3,4-difluorocyclohexyl]-5,5,6-trifluoro-3-(trifluoromethyl)-4,6-dihydrocyclopenta[c]pyrazol-4-ol] | < 100 nM | 3 | < 100 nM | –
O[C@H]1c2c(C(F)(F)F)nn(CCc3cnoc3)c2CC1(F)F [Example 75, (4S)-5,5-difluoro-1-[2-(1,2-oxazol-4-yl)ethyl]-3-(trifluoromethyl)-4,6-dihydrocyclopenta[c]pyrazol-4-ol] | > 1000 nM | 5 | < 100 nM | –
O[C@H]1c2c(C(F)(F)F)nn(CCCC(F)(F)F)c2[C@@H](F)C1(F)F (single isomer, unassigned) [Example 123] | > 1000 nM | 12 | 100 to 1000 nM | –
O[C@H]1c2c(C(F)(F)F)nn(-c3ccc(F)cc3)c2CC1(F)F [Example 114, (4S)-5,5-difluoro-1-(4-fluorophenyl)-3-(trifluoromethyl)-4,6-dihydrocyclopenta[c]pyrazol-4-ol] | > 1000 nM | – | 100 to 1000 nM | 27
O[C@H]1c2c(C(F)(F)F)nn([C@@H]3C[C@@H](F)[C@@H](F)[C@@H](F)C3)c2[C@@H](F)[C@H]1F [Example 140, (4S,5S,6R)-5,6-difluoro-1-[(3R,5S)-3,4,5-trifluorocyclohexyl]-3-(trifluoromethyl)-5,6-dihydro-4H-cyclopenta[c]pyrazol-4-ol] | 100 to 1000 nM | – | < 100 nM | 3
O[C@H]1c2c(C(F)(F)F)nn(C3CCC(F)(F)CC3)c2[C@@H](F)[C@H]1F [Example 132, (4S,5S,6R)-1-(4,4-difluorocyclohexyl)-5,6-difluoro-3-(trifluoromethyl)-5,6-dihydro-4H-cyclopenta[c]pyrazol-4-ol] | > 1000 nM | 8 | < 100 nM | –
O[C@H]1c2c(C(F)(F)F)nn([C@@H]3CCCC(F)(F)C3)c2[C@@H](F)[C@H]1F (single isomer, unassigned) [136/137 DIAST-2] | 100 to 1000 nM | 7 | < 100 nM | –
O[C@H]1c2c(C(F)(F)F)nn(-c3ccc(Cl)c(F)c3)c2CC1(F)F [Example 119, (4S)-1-(4-chloro-3-fluorophenyl)-5,5-difluoro-3-(trifluoromethyl)-4,6-dihydrocyclopenta[c]pyrazol-4-ol] | > 1000 nM | 73 | < 100 nM | –

The next lines start with results.

IC50 [1] | Serum Shift (approximate) [1, 3] | IC50 [2] | SMILES | Serum Shift (approximate) [1]
100 to 1000 nM | 2 | 100 to 1000 nM | O=S1(=O)CC(Cn2nc(C(F)(F)F)c3c2CC(F)(F)[C@H]3O)C1 [Example 57, (4S)-1-[(1,1-dioxothietan-3-yl)methyl]-5,5-difluoro-3-(trifluoromethyl)-4,6-dihydrocyclopenta[c]pyrazol-4-ol] | –
> 1000 nM | 4 | 100 to 1000 nM | C[C@H](C#N)CCn1nc(C(F)(F)F)c2c1CCC(F)(F)[C@H]2O [Example 100, (2S)-4-[(4S)-5,5-difluoro-4-hydroxy-3-(trifluoromethyl)-6,7-dihydro-4H-indazol-1-yl]-2-methylbutanenitrile] | –
> 1000 nM | 23 | 100 to 1000 nM | O[C@H]1c2c(C(F)(F)F)nn([C@@H]3CC[C@@H](F)C[C@H]3F)c2CC1(F)F (single isomer, unassigned) [97/98 DIAST-1] | –
100 to 1000 nM | 8 | < 100 nM | O[C@H]1c2c(C(F)(F)F)nn([C@@H]3C[C@@H](F)[C@@H](F)[C@@H](F)C3)c2[C@@H](F)C1(F)F (single isomer, unassigned) [146/147 DIAST-2] | –
> 1000 nM | 12 | < 100 nM | O[C@H]1c2c(C(F)(F)F)nn(C3CC4(C3)CC(F)(F)C4)c2[C@H](F)[C@H]1F (single isomer, unassigned) [Example 135] | –
> 1000 nM | 8 | < 100 nM | O[C@H]1c2c(C(F)(F)F)nn(CCc3ccoc3)c2CC1(F)F [Example 78, (4S)-5,5-difluoro-1-[2-(furan-3-yl)ethyl]-3-(trifluoromethyl)-1H,4H,5H,6H-cyclopenta[c]pyrazol-4-ol] | –
100 to 1000 nM | 3 | 100 to 1000 nM | O=S1(=O)CC(Cn2nc(C(F)(F)F)c3c2[C@@H](F)C(F)(F)[C@H]3O)C1 (single isomer, unassigned) [144/145 DIAST-2] | –
100 to 1000 nM | 7 | 100 to 1000 nM | O[C@H]1c2c(C(F)(F)F)nn(C3CC4(C3)CC(F)(F)C4)c2C[C@H]1F [Example 67, (4S,5R)-1-{6,6-difluorospiro[3.3]heptan-2-yl}-5-fluoro-3-(trifluoromethyl)-4,6-dihydrocyclopenta[c]pyrazol-4-ol] | –
> 1000 nM | 23 | 100 to 1000 nM | O[C@H]1c2c(C(F)(F)F)nn([C@@H]3CCC[C@H](C(F)(F)F)C3)c2CC1(F)F [Example 82, (4S)-5,5-difluoro-3-(trifluoromethyl)-1-[(1R,3S)-3-(trifluoromethyl)cyclohexyl]-1H,4H,5H,6H-cyclopenta[c]pyrazol-4-ol] | –
> 1000 nM | 5 | 100 to 1000 nM | O[C@H]1c2c(C(F)(F)F)nn([C@@H]3C[C@@H]4[C@H](C3)C4(F)F)c2CC1(F)F (single isomer, unassigned) [125/126 DIAST-2] | –
> 1000 nM | 7 | > 1000 nM | O[C@H]1c2c(C(F)(F)F)nn([C@H]3C[C@@H](COC(F)F)C3)c2CC1(F)F [Example 103, (4S)-1-[3-(difluoromethoxymethyl)cyclobutyl]-5,5-difluoro-3-(trifluoromethyl)-4,6-dihydrocyclopenta[c]pyrazol-4-ol] | –
> 1000 nM | 7 | 100 to 1000 nM | O[C@H]1c2c(C(F)(F)F)nn(CC3CC3C(F)(F)F)c2CCC1(F)F (stereo partly drawn) [Example 59, (4S)-5,5-difluoro-3-(trifluoromethyl)-1-[[2-(trifluoromethyl)cyclopropyl]methyl]-6,7-dihydro-4H-indazol-4-ol] | –
< 100 nM | 9 | < 100 nM | CO[C@H](CCn1nc(C(F)(F)F)c2c1[C@H](F)C(F)(F)[C@H]2O)C(F)(F)F (single isomer, unassigned) [148/149 DIAST-1] | –
> 1000 nM | 3 | 100 to 1000 nM | O=S1(=O)CC(Cn2nc(C(F)(F)F)c3c2[C@H](F)C(F)(F)[C@H]3O)C1 (single isomer, unassigned) [144/145 DIAST-1] | –
